Laboratory results reported in patent US20240325544A1, “CATIONIC LIPID FOR COVALENT MODIFICATION OF PEPTIDES” (PharmalN Corporation, priority 2023, published 2024).
Bridge positions count the residues as written; N and C are the ends. Square brackets hold non-standard residues; d marks the D form. Peptide text beside a SMILES is read from it. * marks the point of attachment. Palmitoyl = CCCCCCCCCCCCCCCC(=O)*; Dap = NC[C@H](N)C(=O)O; AEEA = NCCOCCOCC(=O)O

How the values were obtained:
human NPRB = biological target: T1, human NPRB (Homo sapiens, UniProt P20594); assay: Fluorescence polarization (FP) assay with CNP-F* probe, NPRB; type: binding; conditions: 150 nM test article, 5 nM CNP-F*, 50 nM human NPRB
T1 construct: NPRB R1-T433, (GenBank Accn. #NP_003986.2); made in house; host or cells: Expi293 cells
T1 sequence (P20594 23-455): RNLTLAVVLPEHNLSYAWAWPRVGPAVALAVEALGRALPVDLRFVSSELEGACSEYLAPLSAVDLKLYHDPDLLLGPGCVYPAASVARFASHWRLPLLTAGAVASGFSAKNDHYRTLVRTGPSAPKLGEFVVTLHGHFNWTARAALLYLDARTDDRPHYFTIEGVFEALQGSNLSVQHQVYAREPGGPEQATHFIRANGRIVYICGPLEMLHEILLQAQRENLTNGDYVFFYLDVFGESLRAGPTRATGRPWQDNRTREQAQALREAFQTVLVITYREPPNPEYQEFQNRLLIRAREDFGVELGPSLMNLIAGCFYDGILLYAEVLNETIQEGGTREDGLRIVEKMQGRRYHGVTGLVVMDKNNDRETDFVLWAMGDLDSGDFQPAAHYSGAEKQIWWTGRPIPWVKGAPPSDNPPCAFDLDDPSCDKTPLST
Procedure: Error bars represent standard error of the mean. […] NO.
In the presence of [SEQ ID.
The CNP-F* probe was incubated at a final concentration of 5 nM in the presence of 50 nM human NPRB or NPRC in an assay buffer containing PBS, pH 7.4 and 0.01% Triton X-100. A […] volume of CNP-F* probe and NPR were dispensed into a black 96-well Costar flat-bottom polystyrene plate prior to FP measurement. Next, […] volume of SEQ ID. No. 31 (final concentration 150 nM) was added to the premixed probe and NPR. The plate was incubated at room temperature for 10 min. Fluorescence polarization was then measured on Flexstation 3 (excitation wavelength: 480 nm; emission wavelength: 525 nm and cutoff at 515 nm).
CNP-F* was prepared using solid phase peptide synthesis. […] Next, the crude linear peptide was cleavage with 95% TFA in the presence of carbocation scavengers and ether precipitation.

LM8 osteosarcoma cells = assay: Orthotopic mouse model of lung metastasis using osteosarcoma LM8 cells with amputation (FIG. 11); type: in vivo, mice; conditions: 0.3 mg/kg SC with amputation on Day 7; Day 34
Procedure: FIGS. 11A-11C. […] Error bars indicate standard error of the mean. […] Also illustrated in this diagram are the corresponding treatment schedules for SEQ ID NO: 31 and amputation. From tumor implantation, the SEQ ID NO: 31 treated group was dosed SC (0.3 mg/kg/0.1 μmol/kg in buffer) on Days 4-8, 11-15, 18-22, and 25-26. On Day 7 post-inoculation, all mice underwent amputation to remove the primary tumor. In place of treatment, the amputated control group also received buffer on the same days that SEQ ID NO: 31 was administered. Mice were sacrificed on Day 34, and lung tissues were harvested. FIGS. 11B and 11C) Lung tissues were soaked in 4% paraformaldehyde, paraffin-embedded, and sections were stained with hematoxylin and eosin (H&E). Lung images were observed using high-resolution microscopy (Keyence, Tokyo, Japan, #BZ-X700), and lung metastasis was evaluated by the direct count of present metastatic lung nodules. […]
Animal care and treatment: Male […] mice (7 weeks-old) were purchased from Kyudo (Saga, Japan) and maintained under a 12-hour light/12-hour dark cycle with free access to water and standard mouse diet (MF diet; Oriental Yeast Co., Ltd., Tokyo, Japan). […] Lung images were observed using the high-resolution microscopy (Keyence, Tokyo, Japan, #BZ-X700), and lung metastasis was evaluated by the direct count of present metastatic nodules (FIG. 11C). […]

With `CCCCCCCCCCCCCCCC(=O)NCCOCCOCC(=O)NCCOCCOCC(=O)NCCOCCOCC(=O)N[C@@H](CN)C(=O)N[C@@H](CN)C(=O)NCC(=O)N[C@@H](CC(C)C)C(=O)N[C@@H](CO)C(=O)N[C@@H](CCCCN)C(=O)NCC(=O)N[C@H]1CSSC[C@@H](C(=O)O)NC(=O)CNC(=O)[C@H](CC(C)C)NC(=O)CNC(=O)[C@H](CO)NC(=O)[C@H](CCC(N)=O)NC(=O)[C@H](CO)NC(=O)CNC(=O)[C@H]([C@@H](C)CC)NC(=O)[C@H](CCCNC(=N)N)NC(=O)[C@H](CC(=O)O)NC(=O)[C@H](CC(C)C)NC(=O)[C@H](CCCCN)NC(=O)[C@H](CC(C)C)NC(=O)CNC(=O)[C@H](Cc2ccccc2)NC1=O` [SEQ ID NO: 31] ({Palmitoyl-AEEA-AEEA-AEEA}-[Dap][Dap]GLSKGCFGLKLDRIGSQSGLGC-OH; disulfide 8-24; C-terminus assumed) the “Binding to NPRB (FP signal of CNP-F* probe)” value (human NPRB) was “low FP signal demonstrates binding” and the “Metastatic nodules present in the lung vs amputation alone” value (LM8 osteosarcoma cells) was “significant reduction”.
